Tests used:
[1] = test system: SH-SY5Y human neuroblastoma cells; test: Toxicity: cell viability by LDH activity release; format: cell-based; details: 24 h
Procedure: The potential effects on cell viability of the tested compounds were assessed in SH-SY5Y human neuroblastoma cells, by quantification of Lactate dehydrogenase (LDH) activity release. SH-SY5Y human neuroblastoma cells were seeded into 96-well culture plates at 10^4 cells/well. The medium was then removed and the cells incubated with different concentrations of the compounds during 24 h. […] After 24 h, the medium was removed and cells attached to the bottom of the well were lysed by adding 50 μl of Krebs-Hepes; Triton X-100 1% during 5 minutes at room temperature. For LDH release quantification, the Roche cytotoxicity detection kit (Cat. No. 11 644 793 001) was used. The LDH activity was measured by its absorbance at 492 nm with reference wavelength 620 nm.
In Table 2, for each compound the maximum concentration at which cell viability was tested is indicated in the second column. In the third column, it is indicated whether at this maximum concentration the compound affected or not cell viability (>20% of cell death).

[2] = test system: SH-SY5Y human neuroblastoma cells; test: Protection against hydrogen peroxide-induced cell death (LDH); format: cell-based; details: compound 1 h before H2O2 100 μM during 24 h
Procedure: The aim of this assay is to determine the neuroprotective effect of the compounds of formula (I), when human neuroblastoma cells are exposed to oxidative stress induced by hydrogen peroxide, which is highly deleterious to the cell and its accumulation causes oxidation of cellular targets such as DNA, proteins, and lipids leading to mutagenesis and cell death.
SH-SY5Y human neuroblastoma cells are seeded into 96-well culture plate at a density of 10^4 cells/well. Cells are exposed to different concentrations of the compound one hour before the treatment with H2O2 100 μM during 24 h. 5 mM N-acetylcysteine (NAC), a known anti-oxidant agent was used as a positive control, and preincubated 1 hour before the treatment with H2O2. After 24 h, the medium is removed and cells attached to the bottom of the well are lysed by adding 50 μl of Triton X-100 1% in Krebs-Hepes during 5 minutes at room temperature. For LDH release quantification, Roche cytotoxicity detection kit (Cat. No. 11 644 793 001) was used.

[3] = test system: SH-SY5Y human neuroblastoma cells; test: Protection against 6-OHDA-induced cell death (LDH); format: cell-based; details: preincubated 2 hours before 6-OHDA 75 μM during 16 hours, 10% Foetal bovine serum
Source text: The aim of this experiment is to determine the protective effect of the compounds of formula (I) against the toxicity caused by 6-OHDA. This toxin induces a cell death similar to which occurs in Parkinson's disease, destroying dopaminergic neurons (“MPTP and 6-hydroxydopamine-induced neurodegeneration as models for Parkinson's disease: neuroprotective strategies”; Grunblatt E, et al.; J Neurol. 2000 April; 247 Suppl 2:II95-102).
Two or three days before the experiment, the SH-SY5Y human neuroblastoma cells are seeded into 96-well culture plate at a density of 10^4 cells/well. Cells are exposed to the treatment with 6-OHDA and, finally, cell death is measured by LDH quantification. As positive control we used NAC.
NAC and the compound of formula (I) are preincubated during 2 hours before the treatment with 6-OHDA 75 μM during 16 hours. The assay is performed in medium containing 10% Foetal bovine serum.
For each compound the minimum concentration of compound of formula (I) at which a neuroprotective effect is shown.

SH-SY5Y cells = test: Neuroprotection against Aβ25-35 toxicity (LDH); format: cell-based, human; details: pre-treated 1 hour, then 24 hours 200 μM Aβ25-35
Procedure: In order to evaluate potential neuroprotection of compounds, SH-SY5Y cells, cultured in 96-well plates, were pre-treated for 1 hour with the compound at different concentrations and then exposed 24 hours to 200 μM Aβ25-35 (Neosystem) to induce extensive oxidative stress and cell death. The ability of the compound of protecting against this toxicity is then evaluated by measuring intracellular LDH, using the colorimetric LDH assay.
It is widely accepted that the neurotoxic activity of Aβ resides within amino acids 25-35 (see e.g. Yankner B A et al., (1990) Neurotrophic and neurotoxic effects of amyloid β protein: reversal by tachykinin neuropeptides; Science 250:279-282).

[4] = test system: Aβ (1-40) secretion, CHO7W (stably transfected with human APP751 wt cDNA); test: Inhibition of Aβ(1-40) secretion (ELISA of cellular supernatants); format: cell-based; details: CHO7W cells, Aβ(1-40) in supernatants
Source text: To quantitate Aβ secretion ELISA-based method was used. The assay consists in detection of antigen by selective monoclonal anti-Aβ-antibodies at two different epitopes forming a “Sandwich-complex”, that is detected by colorimetric measure due to the binding of a secondary antibody conjugated with peroxidase that catalyses the conversion of a substrate or chromogen, TMB, into a coloured product, directly proportional to the peptide quantity in the sample. The Aβ production has been analyzed by ELISA, using a colorimetric commercial kit: H-amuloid b-30 ELISA (The Genetics Company).
Aβ (1-40) were quantified from cellular supernatants. An APP-transfected cell line has been employed for the experiments: CHO7W (stably transfected with human APP751 wt cDNA). The cells were grown in a culture medium consisting of DMEM supplemented with 2% Fetal bovine serum, 1% penicillin-streptomycin, 1% L-glutamine and 200 μg/ml G418. Cells are seeded in 96-well culture microplate, at 5000 cells/well and treatment with different compounds at different concentrations is performed 24 hour after seeding.

[5] = maximum concentration tested 100 μM
[6] = maximum concentration tested 1000 μM

SMILES: COc1cc2cccnc2c2nc(/C=N/O)cc(SC)c12 [A, 5-methoxy-4-methylsulfanyl-[1,10]-phenanthroline-2-carbaldehyde oxime]
- Yes/No: compound affected cell viability at maximum concentration tested [1, 5]: Y (affected or not cell viability (>20% of cell death))
- Protect H2O2 (minimum concentration for which protection against H2O2 was determined) [2]: 0.05 µM
- Protection 6-OHDA (minimum concentration at which a neuroprotective effect is shown) [3]: 0.05 µM
- Protection β-Amiloyd (minimum concentration showing neuroprotection against Aβ25-35 toxicity) (SH-SY5Y cells): 5 µM
- inhibition Aβ secretion (minimum concentration at which the compound inhibits beta-amyloid secretion) [4]: 0.1 µM

SMILES: COc1cc(/C=N/O)nc2c1c(F)cc1cccnc12 [B, 5-fluoro-4-methoxy-[1,10]-phenanthroline-2-carbaldehyde oxime]
- Yes/No: compound affected cell viability at maximum concentration tested [1, 6]: N (affected or not cell viability (>20% of cell death))
- Protect H2O2 (minimum concentration for which protection against H2O2 was determined) [2]: 0.05 µM
- Protection 6-OHDA (minimum concentration at which a neuroprotective effect is shown) [3]: 0.05 µM
- Protection β-Amiloyd (minimum concentration showing neuroprotection against Aβ25-35 toxicity) (SH-SY5Y cells): 5 µM
- inhibition Aβ secretion (minimum concentration at which the compound inhibits beta-amyloid secretion) [4]: 1 µM

SMILES: COCCOc1cc2cccnc2c2nc(/C=N/O)cc(OC)c12 [C, 4-methoxy-5-(2-methoxy-ethoxy)-[1,10]-phenanthroline-2-carbaldehyde oxime]
- Yes/No: compound affected cell viability at maximum concentration tested [1, 6]: N (affected or not cell viability (>20% of cell death))
- Protect H2O2 (minimum concentration for which protection against H2O2 was determined) [2]: 0.005 µM
- Protection 6-OHDA (minimum concentration at which a neuroprotective effect is shown) [3]: 0.5 µM
- Protection β-Amiloyd (minimum concentration showing neuroprotection against Aβ25-35 toxicity) (SH-SY5Y cells): 5 µM
- inhibition Aβ secretion (minimum concentration at which the compound inhibits beta-amyloid secretion) [4]: 0.1 µM

SMILES: CSc1cc(/C=N/O)nc2c1c(C)cc1cccnc12 [D, 5-methyl-4-methylsulfanyl-[1,10]phenanthroline-2-carbaldehyde oxime]
- Yes/No: compound affected cell viability at maximum concentration tested [1, 6]: N (affected or not cell viability (>20% of cell death))
- Protect H2O2 (minimum concentration for which protection against H2O2 was determined) [2]: 0.5 µM
- Protection 6-OHDA (minimum concentration at which a neuroprotective effect is shown) [3]: 0.05 µM
- Protection β-Amiloyd (minimum concentration showing neuroprotection against Aβ25-35 toxicity) (SH-SY5Y cells): 0.5 µM
- inhibition Aβ secretion (minimum concentration at which the compound inhibits beta-amyloid secretion) [4]: 1 µM

SMILES: COc1cc2c(SC)cc(/C=N/O)nc2c2ncccc12 [E, 6-methoxy-4-methylsulfanyl-[1,10]phenanthroline-2-carbaldehyde oxyme]
- Yes/No: compound affected cell viability at maximum concentration tested [1, 5]: Y (affected or not cell viability (>20% of cell death))
- Protect H2O2 (minimum concentration for which protection against H2O2 was determined) [2]: 0.05 µM
- Protection 6-OHDA (minimum concentration at which a neuroprotective effect is shown) [3]: 0.5 µM
- Protection β-Amiloyd (minimum concentration showing neuroprotection against Aβ25-35 toxicity) (SH-SY5Y cells): 10 µM
- inhibition Aβ secretion (minimum concentration at which the compound inhibits beta-amyloid secretion) [4]: 10 µM

SMILES: COc1cc2c(=O)cc(/C=N/O)[nH]c2c2ncccc12 [F, 6-methoxy-4-oxo-1,4-dihydro-[1,10]phenanthroline-2-carbaldehyde oxime]
- Yes/No: compound affected cell viability at maximum concentration tested [1, 6]: N (affected or not cell viability (>20% of cell death))
- Protection 6-OHDA (minimum concentration at which a neuroprotective effect is shown) [3]: 10 µM
